In patent US4818770A, “Prevention of a plant disease by specific inhibition of fungal polyamine biosynthesis” (priority 1986, dated 1989):
Read-outs that look alike come from different tables or passages of the source.

Assays:
Uromyces phaseoli [1] = assay: Translocation of protective effect in partially treated unifoliolate bean leaves; type: in vivo; details: for Lesions per cm^2, treated side / Lesions per cm^2, untreated side / Lesions per half leaf, treated side / Lesions per half leaf, untreated side: 1.0 mM on one longitudinal half leaf
tomato plants = assay: Effect on growth of uninoculated tomato plants; type: in vivo, Lycoperisicon esculentum; details: concentrations up to 20 mM; 28-day observation period
[2] = tested on: P. graminis f. sp. tritici; type: in vivo, Puccinia graminis f. sp. tritici
U. phaseoli [3] = assay: Kinetics of bean rust inhibition by delayed postinoculation DFMO; type: in vivo, Uromyces phaseoli
U. phaseoli [4] = assay: Bean rust severity after DFMO and polyamines alone or combined; type: in vivo, Uromyces phaseoli
U. phaseoli uredospores = assay: Uredospore germination on the surface of the unifoliolate bean leaf; type: in vivo, Uromyces phaseoli; details: sprayed 1 day before inoculation
[5] = tested on: Collectotrichum lagenarium; assay: Radial growth in vitro of cucumber anthracnose fungus; type: cell-based, Colletotrichum lagenarium
Experimental: See Table 15 for the effect of DFMO on radial growth in vitro on cucumber anthracnose fungus (Colletcotrichum lagenarium). The cucumber anthracnose fungus growing in Czapek's agar in Petri plates is not affected by DFMO up to 5 mM.

[6] = Tabor et al. (1985); cited from earlier work
Uromyces phaseoli [7] = assay: Bean rust lesions on reinoculated trifoliolate leaves; details: for Lesions per cm^2 / Lesions per leaflet: reinoculated trifoliolate leaves
Text: Trifoliolate leaves were reinoculated with pathogen after 1 week, before
or after exposure to DFMO, to detect transfer of a protective effect to
other parts of the plant.

[8] = 1.0 mM DFMO sprayed 1 d after spore inoculation
[9] = 1.0 mM DFMO sprayed 2 d after spore inoculation
[10] = 1.0 mM DFMO sprayed 3 d after spore inoculation
[11] = 1.0 mM DFMO sprayed 4 d after spore inoculation
[12] = 1.0 mM DFMO sprayed 5 d after spore inoculation
[13] = DFMO 0.05 mM alone, postinoculation
[14] = postinoculation exposure, DFMO 0.05 mM
[15] = postinoculation exposure, DFMO 0.1 mM
[16] = postinoculation exposure, DFMO 0.5 mM
[17] = postinoculation exposure, DFMO 1.0 mM
[18] = postinoculation exposure, DFMO 5.0 mM
[19] = preinoculation exposure, DFMO 0.05 mM
[20] = preinoculation exposure, DFMO 0.1 mM
[21] = preinoculation exposure, DFMO 0.5 mM
[22] = preinoculation exposure, DFMO 1.0 mM
[23] = preinoculation exposure, DFMO 5.0 mM

## NCCCC(N)(C(=O)O)C(F)F (racemic) [DFMO, DL-alpha-difluorimethylornithine]
Uromyces phaseoli [1]; petiolar or apical half treated with 1 mM DFMO
  protection of the untreated half of the leaf: the other half was also protected against infection
Uromyces phaseoli [1]; postinoculation exposure
  Lesions per cm^2, treated side: 0 per cm^2
  Lesions per cm^2, untreated side: 0 per cm^2
  Lesions per half leaf, treated side: 0 per half leaf
  Lesions per half leaf, untreated side: 0 per half leaf
Uromyces phaseoli [1]; preinoculation exposure
  Lesions per cm^2, treated side: 0 per cm^2
  Lesions per cm^2, untreated side: 22 ± 4 per cm^2
  Lesions per half leaf, treated side: 0 per half leaf
  Lesions per half leaf, untreated side: 617 ± 112 per half leaf
Tomato plants
  growth and development of uninoculated tomato plants: no apparent effects on the growth and development of the plants
[2]; post-inoculation, 0.01 mM
  % control: 36%
  Uredia/plant: 134 Uredia/plant
[2]; post-inoculation, 0.025 mM
  % control: 44%
  Uredia/plant: 117 Uredia/plant
[2]; post-inoculation, 0.065 mM
  % control: 55%
  Uredia/plant: 94 Uredia/plant
[2]; post-inoculation, 0.10 mM
  % control: 76%
  Uredia/plant: 51 Uredia/plant
[2]; post-inoculation, 0.13 mM
  % control: 77%
  Uredia/plant: 49 Uredia/plant
[2]; post-inoculation, 0.16 mM
  % control: 81%
  Uredia/plant: 40 Uredia/plant
[2]; post-inoculation, 0.20 mM
  % control: 82%
  Uredia/plant: 37 Uredia/plant
[2]; post-inoculation, 1.00 mM
  % control: 92%
  Uredia/plant: 17 Uredia/plant
[2]; pre-inoculation treatment
  ED50, wheat stem rust: 560 µM
[2]; pre-inoculation, 0.01 mM
  % control: 8%
  Uredia/plant: 194 Uredia/plant
[2]; pre-inoculation, 0.025 mM
  % control: 17%
  Uredia/plant: 175 Uredia/plant
[2]; pre-inoculation, 0.065 mM
  % control: 13%
  Uredia/plant: 182 Uredia/plant
[2]; pre-inoculation, 0.10 mM
  % control: 13%
  Uredia/plant: 183 Uredia/plant
[2]; pre-inoculation, 0.13 mM
  % control: 19%
  Uredia/plant: 170 Uredia/plant
[2]; pre-inoculation, 0.16 mM
  % control: 32%
  Uredia/plant: 143 Uredia/plant
[2]; pre-inoculation, 0.20 mM
  % control: 32%
  Uredia/plant: 143 Uredia/plant
[2]; pre-inoculation, 1.00 mM
  % control: 57%
  Uredia/plant: 91 Uredia/plant
U. phaseoli [3]; [8]
  Lesions per cm^2: 0 per cm^2
  Lesions per leaf: 0 per leaf
U. phaseoli [3]; [9]
  Lesions per cm^2: 0 per cm^2
  Lesions per leaf: 0 per leaf
U. phaseoli [3]; [10]
  Lesions per cm^2: 0 per cm^2
  Lesions per leaf: 0 per leaf
U. phaseoli [3]; [11]
  Lesions per cm^2: 41 ± 5 per cm^2
  Lesions per leaf: 2330 ± 211 per leaf
U. phaseoli [3]; [12]
  Lesions per cm^2: 53 ± 4 per cm^2
  Lesions per leaf: 3278 ± 326 per leaf
U. phaseoli [4]; 0.05 mM DFMO alone
  reduction of number of lesions: 70%
U. phaseoli [4]; [13]
  Lesions per cm^2: 22 ± 4 per cm^2
  Lesions per leaf: 1223 ± 268 per leaf
  Lesions per leaf, percent of control: 30% of control
U. phaseoli [4]; Uromyces phaseoli, 0.05 mM DFMO, read-out: inhibition of uredial development
  inhibition at 50 µM: ~50%
U. phaseoli uredospores; lower concentrations of DFMO
  spore germination on leaf surface: partially inhibited
U. phaseoli uredospores; more than 0.5 mM DFMO
  spore germination on leaf surface: completely inhibited
[5]; 0.10 mM
  Radial growth (cm): 4.5 cm
[5]; 0.25 mM
  Radial growth (cm): 4.5 cm
[5]; 0.50 mM
  Radial growth (cm): 4.5 cm
[5]; 0.65 mM
  Radial growth (cm): 4.4 cm
[5]; 1.00 mM
  Radial growth (cm): 4.0 cm
[5]; 5.00 mM
  Radial growth (cm): 3.8 cm
[5]; Colletotrichum orbiculare, 0.65 mM, read-out: Percent control
  inhibition of growth at 650 µM: 2%
[5]; Colletotrichum orbiculare, 1.00 mM, read-out: Percent control
  inhibition of growth at 1000 µM: 7%
[5]; Colletotrichum orbiculare, 5.00 mM, read-out: Percent control
  inhibition of growth at 5000 µM: 16%
[5]; up to 5 mM
  effect on fungus growing in Czapek's agar: not affected
[6]
  toxicity: low toxicity
Uromyces phaseoli [7]; 5.0 mM DFMO, reinoculated after 1 week
  protection of newly emerged trifoliolate leaves: complete protection
Uromyces phaseoli [7]; [14]
  Lesions per cm^2: 59 ± 1 per cm^2
  Lesions per leaflet: 1246 ± 73 per leaflet
Uromyces phaseoli [7]; [15]
  Lesions per cm^2: 58 ± 4 per cm^2
  Lesions per leaflet: 1289 ± 131 per leaflet
Uromyces phaseoli [7]; [16]
  Lesions per cm^2: 41 ± 4 per cm^2
  Lesions per leaflet: 982 ± 84 per leaflet
Uromyces phaseoli [7]; [17]
  Lesions per cm^2: 22 ± 2 per cm^2
  Lesions per leaflet: 422 ± 13 per leaflet
Uromyces phaseoli [7]; [18]
  Lesions per cm^2: 0 per cm^2
  Lesions per leaflet: 0 per leaflet
Uromyces phaseoli [7]; [19]
  Lesions per cm^2: 64 ± 5 per cm^2
  Lesions per leaflet: 1458 ± 92 per leaflet
Uromyces phaseoli [7]; [20]
  Lesions per cm^2: 55 ± 3 per cm^2
  Lesions per leaflet: 1274 ± 120 per leaflet
Uromyces phaseoli [7]; [21]
  Lesions per cm^2: 39 ± 7 per cm^2
  Lesions per leaflet: 1172 ± 158 per leaflet
Uromyces phaseoli [7]; [22]
  Lesions per cm^2: 16 ± 2 per cm^2
  Lesions per leaflet: 320 ± 22 per leaflet
Uromyces phaseoli [7]; [23]
  Lesions per cm^2: 0 per cm^2
  Lesions per leaflet: 0 per leaflet
